Earlier results as cited in publication PMC5358987 (Drug Design, Development and Therapy, 2017).

Tyrosinase inhibition (tyrosinase): potent competitive tyrosinase inhibitors
SMILES: O=C(O)[C@@H]1CSC(c2ccc(O)cc2O)N1 (mixture of isomers) [MHY384, (2RS,4R)-2-(2,4-dihydroxyphenyl)thiazolidine-4-carboxylic acid]
Reduction of melanogenesis (HRM2 hairless mice): effectively reduce melanogenesis
